A short description of this series: dissolution in water. It counts as physicochemical. The conditions noted are these: stated in words only, no figure.

Turning to `COc1ccc(C(CN(C)C)C2(O)CCCCC2)cc1` (stereo not shown) [venlafaxine base, 1-[2-(dimethylamino)-1-(4-methoxyphenyl)ethyl]cyclohexanol], the dissolution in water entry was “slow”.

For the origin of these results see patent publication US20030191347A1 (priority 2002, published 2003).
